Measurements as given in US7282507B2, “Indole derivatives as selective androgen receptor modulators (SARMS)” (Janssen Pharmaceutica N.V., priority 2004, dated 2007).
Where two headings read alike, the source gives them in different places.

Assays:
[1] = target: T1, androgen receptor (rat ventral prostate cytosol) (Rattus norvegicus, UniProt P15207); assay: Androgen Receptor Binding Using Rat Ventral Prostate Cytosol; settings: Concentration 3000 nM
T1 construct: from tissue; host or cells: ventral prostate cytosol of castrated male Sprague Dawley or Wistar rats
T1 sequence (P15207 1-902): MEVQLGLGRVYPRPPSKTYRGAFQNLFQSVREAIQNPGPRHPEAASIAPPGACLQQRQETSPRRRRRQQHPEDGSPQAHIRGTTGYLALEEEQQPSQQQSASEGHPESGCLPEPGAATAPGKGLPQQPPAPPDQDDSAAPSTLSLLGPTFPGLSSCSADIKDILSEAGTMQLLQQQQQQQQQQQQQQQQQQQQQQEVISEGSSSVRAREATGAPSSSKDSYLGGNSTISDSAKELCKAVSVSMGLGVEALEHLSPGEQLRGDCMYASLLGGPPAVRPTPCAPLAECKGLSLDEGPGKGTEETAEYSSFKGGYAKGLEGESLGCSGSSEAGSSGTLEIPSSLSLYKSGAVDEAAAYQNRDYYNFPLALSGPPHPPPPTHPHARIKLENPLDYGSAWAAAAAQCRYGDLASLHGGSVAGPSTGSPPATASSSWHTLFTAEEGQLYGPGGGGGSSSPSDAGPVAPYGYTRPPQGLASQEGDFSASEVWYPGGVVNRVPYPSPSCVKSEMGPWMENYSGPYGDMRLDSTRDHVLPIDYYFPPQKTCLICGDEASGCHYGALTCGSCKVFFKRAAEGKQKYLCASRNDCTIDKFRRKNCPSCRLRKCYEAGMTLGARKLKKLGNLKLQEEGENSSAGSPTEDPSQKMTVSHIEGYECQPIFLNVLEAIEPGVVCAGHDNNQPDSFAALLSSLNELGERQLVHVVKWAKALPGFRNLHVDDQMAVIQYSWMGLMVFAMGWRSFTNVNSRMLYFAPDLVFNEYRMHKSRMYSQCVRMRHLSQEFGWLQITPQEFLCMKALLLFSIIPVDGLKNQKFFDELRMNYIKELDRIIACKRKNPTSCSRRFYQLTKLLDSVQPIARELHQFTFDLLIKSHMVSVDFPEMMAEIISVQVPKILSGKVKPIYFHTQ
Protocol: The assay was run on a 96 well plate with each well filled with a total reaction volume 150 μL, of a solution containing 5 pmol androgen receptor LBD (Panvera) or 30 μL of freshly prepared rat cytosol, 0.5 nM [^3H] […] (TED buffer contains 10 mM Tris.HCl pH 7.4, 1 mM sodium molybdate, 1.5 mM EDTA, 1 mM DTT and 10% (v/v) glycerol.)
On day one, the solution containing receptor, tracer and TED buffer was distributed into a 96 well plate. Diluted test compound or control vehicle was then added to individual wells and the plate incubated at 4° C. overnight.
On day two, to each well was then added 20 μL human γ-globulin (ICN 823102), prepared at 25 mg/ml in TE pH 8.0, and 55 μL 40% polyethylene glycol 8000 (J T Baker U222-08), prepared in TE pH 8.0. The plate was incubated at 4° C. for 60 minutes. During incubation, the harvester was rinsed with 10% PEG 8000, prepared in TE pH 8.0, and a GF/C Unifilter-96 was pre-wet with 10% PEG. The binding reaction was filtered, the retentate was washed three times with 10% PEG and dried under vacuum for a couple of minutes, then dried at 50° C. for 5 min and the plate was bottom sealed. Next, 25 μL of Microscint-20 (Packard) was added to the filter wells and the plate was top sealed. The plate wells were then counted on a TopCount (Packard).
Rat Prostate Cytosol Preparation:
Male Sprague Dawley or Wistar rats (Charles River, 200-300 g) were used for each preparation. The day before preparing the cytosol, the rats were castrated using standard surgical procedures.
The rats were euthanized by carbon dioxide asphyxiation. The rat prostates were quickly removed and placed on ice in pre-chilled, pre-weighed 50 mL plastic tubes. No more than five prostates were placed into one tube. The tubes were then weighed and the prostate tissue wet weights calculated.
To the chilled prostate tissue was then added […] of chilled homogenization buffer. The homogenization buffer was freshly prepared by mixing 10 mM Tris.HCl, pH 7.4, 1 mM sodium molybdate, 1.5 mM EDTA, 1 mM dithiothreitol, 10% (v/v) glycerol and 1% protease inhibitor cocktail (Sigma P 8340).
The prostate tissue was homogenized in a cold room using a pre-chilled Polytron PT3000 homogenizer (Brinkmann). Homogenization was performed at a speed setting of 20, three times for 10 sec bursts. The tubes containing the prostate tissue was kept on ice while homogenizing. The homogenate was allowed to rest on ice for 20 sec between bursts.
The homogenate was then placed into pre-chilled 3 mL polycarbonate ultracentrifuge tubes and centrifuged in the TLA-100 rotor of a TL-100 ultracentrifuge for 12 min at 100,000 rpm at 4° C. The resulting supernatant was stored in 1 mL aliquots at −80° C. until needed.
Binding to the androgen receptor was determined according to the protocol described in Example 86 using the above prepared rat cytosol.
% Inhibition was determined by testing dilutions of the test compound (usually duplicates of 10 μM) in the binding assay. Counts per well were measured and percents of inhibition determined. […] Counts per well were measured and IC50s determined by linear regression.

[2] = target: T2, androgen receptor (AdEasy+rAR, L929 cells) (Rattus norvegicus, UniProt P15207); assay: L929 Androgen Receptor Functional Assay, Adenovirus Transduction; assay type: cell-based; settings: for % Activity, L929 androgen receptor functional assay: agonist testing, 3000 nM; for inhibition at 3 µM: L929, antagonist testing with R1881, 3000 nM
T2 construct: expressed in transfected cells; host or cells: L929 cells transduced with adenovirus AdEasy+rAR
T2 sequence (P15207 1-902): T1 sequence (P15207 1-902)
Outline: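 L929 cells in phenol red-free, charcoal-stripped serum medium transduced with AdEasy+rAR (moi 1:500) and exposed 48 h at 37 °C to compound alone (agonist mode) or with R1881 (antagonist mode; 2.5 nM as the 2.5× dilution).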

[3] = system: testosterone-enhanced ventral prostate and seminal vesicle weights; assay: Ventral Prostate and Seminal Vesicle Weight in vivo Assay; parameters: species or system rat; settings: immature castrated male Sprague Dawley rats, once daily for five days, usually orally 40 mg/kg, with testosterone propionate 2 mg/kg s.c. Also: key: 'active' if the non weight adjusted prostate weight was ≦40 mg or the % Inhibition prostate weight, body weight adjusted was ≧40% @ 2 mg/day dosage; ID50's, if determined, of ≦15 mg/day also indicated an 'active' compound; listed herein as 'inactive' as they did not meet the specified criteria defined above.
Outline: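 Immature castrated male Sprague Dawley rats (~50 g) were dosed once daily for five days with compound, usually orally at 40 mg/kg in cyclodextrin or methylcellulose vehicle. Testosterone propionate was co-dosed subcutaneously at 2 mg/kg. On day six, ventral prostate and seminal vesicle wet weights were measured; activity was judged on prostate weight or body-weight-adjusted % inhibition.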

[4] = target: T3, androgen receptor (AdEasy+rAR, COS-7 cells) (Rattus norvegicus, UniProt P15207); assay: COS-7 Whole-Cell Androgen Receptor Binding Assay, Adenovirus Transduction
T3 construct: expressed in transfected cells; host or cells: COS-7 cells transduced with adenovirus AdEasy+rAR
T3 sequence (P15207 1-902): T1 sequence (P15207 1-902)
Protocol: COS-7 cells were plated in 96-well plates at 20,000 cells per well, in a solution of DMEM/F12 (GIBCO) containing 10% (v/v) charcoal-treated fetal bovine serum (Hyclone) and lacking phenol red. The cells were then incubated overnight at 37° C. in 5% (v/v) humidified CO2.
Test compound solutions were prepared by diluting the test compound in 100% (v/v) DMSO, if necessary.
Next, 1 mL of DMEM/F12 lacking phenol red was pipetted into each of the wells of a 2-mL 96-well assay block. […] The wells were carefully mixed by pipette.
In a 15 mL or 50 mL sterile centrifuge tube, a dilution in DMEM/F12 of the adenovirus AdEasy+rAR at a moi of 1:50 per well was prepared.
The medium was removed from the 96-well plates by inversion and the plates dried very briefly, inverted, on a sterile towel. As soon as possible after medium removal, 40 μL of the diluted test compound was added to each well, in duplicate. […] The plates were then incubated for 48 hours at 37° C. in 5% (v/v) humidified CO2.
The medium was removed from the above incubated plates by inversion and dried. Each well was then washed with 0.35 mL of 1× PBS. The PBS was then removed from the plates by inversion and the plates dried.
To each well was then added 50 μL of 0.5% (v/v) Triton X-100 (Sigma) in 1× PBS and the plates placed on a rotary shaker for 5 min. The contents of each well were then transferred to an OptiPlate-96 (Packard) scintillation plate. To each well was then added 0.2 mL of Microscint-20 (Packard) and the wells counted on a TopCount (Packard).
Percent inhibition was determined by testing dilutions of the test compound (usually duplicates of 10 μM) in the binding assay. Counts per well were measured and percents of inhibition determined. […] Counts per well were measured and IC50s determined by linear regression.

[5] = read-out: IC50 (nM), COS Binding

Structure (SMILES)	% Activity, L929 androgen receptor functional assay [2] [%]	active / inactive: inhibition of testosterone-enhanced prostate weight [3]	IC50 [4, 5] [nM]	inhibition at 3 µM ([4]; concentration of 3000 nM) [%]	other results
CC(C)SC(C)(CO)c1cc2cc([N+](=O)[O-])c(C(F)(F)F)cc2[nH]1 (racemic) [Compound 268]	9	inactive	–	–	% Inhibition, Androgen Receptor Binding (Rat Cytosol) [1]: −3.3%
CCSCC(C)(CO)c1cc2cc([N+](=O)[O-])c(C(F)(F)F)cc2[nH]1 (centres unmarked) [Compound 11]	–	inactive	> 3000	–	–
CCSCC(C)(O)c1[nH]c2cc(C(F)(F)F)c([N+](=O)[O-])cc2c1C#N (centres unmarked) [Compound 242]	–	inactive	305	92	–
CC(O)(CS(=O)(=O)Cc1ccccc1)c1cc2cc([N+](=O)[O-])c(C(F)(F)F)cc2[nH]1 (racemic) [Compound 162]	2	inactive	–	–	% Inhibition, Androgen Receptor Binding (Rat Cytosol) [1]: 0.69%
CCSCC(C)(O)c1[nH]c2cc(C(F)(F)F)c([N+](=O)[O-])cc2c1C#N (single isomer, unassigned) [Compound 247]	–	inactive	60.7	90	–
CCSCC(C)(O)Cc1cc2cc([N+](=O)[O-])c(C(F)(F)F)cc2[nH]1 (centres unmarked) [Compound 10]	–	inactive	> 3000	–	–
CCSCC(C)(OC)c1cc2cc([N+](=O)[O-])c(C(F)(F)F)cc2[nH]1 (centres unmarked) [Compound 167]	–	active	> 3000	–	–
COc1ccc(S(=O)(=O)CC(C)(O)c2cc3cc(Cl)c(C(F)(F)F)cc3n2S(C)(=O)=O)cc1 (centres unmarked) [Compound 128]	−4	–	–	21	inhibition at 3 µM [2]: 44%; IC50 ([4]; IC50 (nM), COS Binding): > 1500 nM
CCSCC(C)(O)c1cc2cc(Cl)ccc2n1S(C)(=O)=O (racemic) [Compound 154]	2	–	–	–	% Inhibition, L929 androgen receptor functional assay ([2]; antagonist testing with R1881, 3000 nM): 7%; % Inhibition, COS Binding ([4]; concentration of 3000 nM): 50%
CSCC(C)(O)c1cc2cc(Cl)c(C(F)(F)F)cc2n1S(C)(=O)=O (centres unmarked) [Compound 134]	–	inactive	> 10000	–	–
CCS(=O)(=O)CC(C)(O)c1[nH]c2cc(C(F)(F)F)c(C#N)cc2c1C (racemic) [Compound 246]	–	–	616	70	–
CCSCC(C)(O)c1cc2ccc(C(F)(F)F)cc2n1S(C)(=O)=O (centres unmarked) [Compound 214]	–	–	> 3000	–	–
CC(O)(CSc1ccc(C(=O)O)cc1)c1cc2cc(Cl)c(C(F)(F)F)cc2n1S(C)(=O)=O (centres unmarked) [Compound 132]	−5	–	–	8.7	inhibition at 3 µM [2]: 48%; IC50 ([4]; IC50 (nM), COS Binding): > 3000 nM
CN(C)c1ccc(S(=O)(=O)CC(C)(O)c2cc3cc(Cl)c(C(F)(F)F)cc3[nH]2)cc1 (racemic) [Compound 126]	−5	inactive	–	–	% Inhibition, Androgen Receptor Binding (Rat Cytosol) [1]: −30%
CCS(=O)(=O)CC(C)(O)c1cc2cc([N+](=O)[O-])c(C(F)(F)F)cc2[nH]1 (centres unmarked) [Compound 175]	–	active	> 3000	–	–
CCSCC(C)(O)c1cc2cc(C#N)c(Cl)cc2[nH]1 (centres unmarked) [Compound 225]	1	–	142	82	inhibition at 3 µM [2]: 97%; IC50 ([2]; antagonist testing with R1881): 229 nM
CC(O)(Sc1ccc(N)cc1)c1cc2cc([N+](=O)[O-])c(C(F)(F)F)cc2[nH]1 (racemic) [Compound 266]	−4	inactive	–	–	% Inhibition, Androgen Receptor Binding (Rat Cytosol) [1]: 12.4%
